Values quoted from earlier work, collected in patent US11160765B2, “Compositions and methods of treating fungal infections of the nails” (KBR Incorporated, priority 2018, dated 2021).

Tested on: Candida albicans

Row | Structure (SMILES) | proteinase, phospholipase secretion, and dimorphism in Candida albicans
1 | C=CCSSCC=C [diallyl disulphide (DADS0, diallyl disulphide] | significantly inhibit
2 | C=CCSCC=C [diallyl sulphide (DAS), diallyl sulphide] | significantly inhibit
